Data set [1] deals with PqsR (PqsR-controlled pqsA promoter, PAO1-L mCTX::PpqsA-lux). Nature of the data set: Bioluminescent reporter assay, PAO1-L mCTX::PpqsA-lux. It counts as cell-based, Pseudomonas aeruginosa. The conditions noted are these: Pseudomonas aeruginosa, PAO1, read-out: IC50 (μM) PAO1-L mCTX::PpqsA-lux. How it is done: (§1) An extensive SAR was performed on 6a to investigate the role of substitutions around various positions of the benzimidazole ring (groups R1–R3) as well as the aromatic tail (groups R4–R5) to fine-tune the potency of this series (6a–u) (Table 2). The activity of these analogues to inhibit the pqs QS system was evaluated in the PAO1-L and PA14 strains (that belong to the two major P. aeruginosa genomic lineages), both harboring a chromosomally integrated mCTX::PpqsA-lux transcriptional fusion to report for the activity of pqs system. Successful pharmacological blocking of AQ signal reception at the level of PqsR leads to a reduced transcription of the pqsA-lux genes and ultimately reduction in the luminescence readout.
(§2) Strains PA14 mCTX::PpqsA-lux and PAO1-L mCTX::PpqsA-lux were used to detect PqsR-controlled activation of the pqsA promoter, as previously described,[45] and the assay was performed according to a published method.[46] For initial screening, the compounds were tested at a concentration of 10 μM, which was prepared from a 10 mM stock, in DMSO.
(Reporter assays use an easily measured gene product as a stand-in for the process of interest.)

Data set [2] concerns PqsR (PqsR-controlled pqsA promoter, PA14 mCTX::PpqsA-lux). As to the kind of experiment: Bioluminescent reporter assay, PA14 mCTX::PpqsA-lux. It counts as cell-based. The conditions noted are these: Pseudomonas aeruginosa, PA14, read-out: IC50 (μM) PA14 mCTX::PpqsA-lux. How it is done: as §1, §2
In data set [3] the test system is A549 human lung epithelial carcinoma cell line. As to the kind of experiment: A549 cytotoxicity assay (resazurin / alamar blue). It counts as cell-based. To be noted: at concentrations up to 100 μM (1, 50, 100 μM), 24 h. On the procedure:
Establishing the safety profile of new chemical entities is paramount for further drug development. […] The assay employed resazurin reduction, a sensitive fluorometric assay widely used as a standard methodology in drug discovery research.[35] This assay relies on the ability of living cells to reduce resazurin to the fluorescent compound, resorufin, which indicates the rate of the metabolic activity as a means to quantify cell viability.
Cell viability was assessed according to Nimesh et al.[51] on A549 adenocarcinomic human alveolar basal epithelial cell line. The viability of the A549 cell line was assessed after overnight incubation with three concentrations (1, 50, and 100 μM) of the corresponding compound using alamar blue (resazurin) dye. Cells were maintained in the Dulbecco’s Modified Essential Medium (DMEM) supplemented with 10% fetal bovine serum (FBS) and 1% penicillin–streptomycin–neomycin (PSN). After that, 100 μL of suspended cells with a final concentration (1 × 10^4 cells/wall) were seeded in 96-well plates with 100 μL of (1, 50, 100 μM) concentrations of the tested compound was dispensed in sextuplicate. […] The plates were further incubated for 4–6 h and the intensity of the fluorescence was measured using an excitation light of 510 nm and measuring the fluorescence output at 590 nm. The cell viability in each well was normalized to the DMSO reading.
Background: Alamar Blue is a resazurin reagent that responds to reducing activity.

For data set [4], the system named is PqsR (PqsR-controlled pqsA promoter, PAO1-L mCTX::PpqsA-lux). On the set-up: method as in PMID 34503335. To be noted: previously reported inhibitor; read-out: IC50 in P. aeruginosa PAO1-L; cited from earlier work.

Read-outs that look alike come from different tables or passages of the source.

Consider two compounds from article PMC10823468, “Design, Synthesis, and Evaluation of New 1H-Benzo[d]imidazole Based PqsR Inhibitors as Adjuvant Therapy for Pseudomonas aeruginosa Infections” (Journal of Medicinal Chemistry, 2024).

In general, IC50 refers to the concentration at which inhibition is half-maximal. In the case of `CC(C)n1c(NCC(O)COc2ccc(CC#N)cc2F)nc2ccc(Cl)cc21` (stereo not shown) [Compound 6n, 2-(4-(3-((6-Chloro-1-isopropyl-1H-benzo[d]imidazol-2-yl)amino)-2-hydroxypropoxy)-3-fluorophenyl) Acetonitrile], the IC50 in data set [1] was determined as 0.05 ± 0.02 µM; in data set [2], 0.11 ± 0.01 µM. Further, in data set [3], the “cytotoxicity for A549 cells” value is recorded as “not cytotoxic”.
As for `N#CCc1ccc(OCC(O)Cn2cnc3ccc(Cl)cc3c2=O)cc1` (stereo not shown) [Compound 1], the IC50 in data set [4] is 3200 nM.
